Data taken from patent publication US9326513B2, “Fungicidal compositions” (Syngenta Participations AG, priority 2011, dated 2016).

What was measured:
Assay type in all cases: in vivo
Conditions in all cases: foliar, compared to untreated control leaf disks, read-out: disease control
Pyrenophora teres = Pyrenophora teres / barley / leaf disc preventative (net blotch)
Text: Pyrenophora teres/Barley/Leaf Disc Preventative (Net Blotch) Barley leaf segments cv. Hasso were placed on agar in a multiwell plate (24-well format) and sprayed with the formulated test compound diluted in water. The leaf segments were inoculated with a spore suspension of the fungus 2 days after application.

[1] = tested on: Puccinia recondita f. sp. tritici; assay: Puccinia recondita f. sp. tritici / wheat / leaf disc curative (brown rust)
Procedure: Puccinia recondita f. sp. tritici/Wheat/Leaf Disc Curative (Brown Rust) Wheat leaf segments cv. Kanzler are placed on agar in multiwell plates (24-well format). The leaf segments are inoculated with a spore suspension of the fungus. Plates were stored in darkness at 19° C. and 75% rh. The formulated test compound diluted in water was applied 1 day after inoculation.

[2] = tested on: Blumeria graminis f. sp. tritici (Erysiphe graminis f. sp. tritici); assay: Blumeria graminis f. sp. tritici / wheat / leaf disc preventative (powdery mildew on wheat)
Summary of the method: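 Preventative leaf-disc test: compound (200 ppm) was sprayed onto cv. Kanzler wheat segments, which were dusted with conidia from infected plants 1 day after application. After incubation at 20° C and 60% rh, disease control relative to untreated segments was rated 6-8 days after application.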

[3] = tested on: Puccinia recondita f. sp. tritici; assay: Puccinia recondita f. sp. tritici / wheat / leaf disc preventative (brown rust)
Text: Puccinia recondita f. sp. tritici/Wheat/Leaf Disc Preventative (Brown Rust) Wheat leaf segments cv. Kanzler were placed on agar in multiwell plates (24-well format) and sprayed with the formulated test compound diluted in water. The leaf disks were inoculated with a spore suspension of the fungus 1 day after application.

Measured: pest or weed control at 200 ppm

CCN(C)/C=N/c1cc(Br)c(OCc2ccccc2C#N)nc1C [Q.304]
≥ 50%: all assays above

CCN(C)/C=N/c1cc(Br)c(OC2Cc3ccc(C#N)cc3C2)nc1C (stereo not shown) [Q.376]
≥ 50%: all assays above

CCN(C)/C=N/c1cc(Br)c(OC(C)Cc2ccccc2)nc1C (stereo not shown) [Q.198]
≥ 50%: all assays above

CCN(C)/C=N/c1cc(Br)c(OC(C)(C)c2cc(C)no2)nc1C [Q.076]
≥ 50%: all assays above

CCN(C)/C=N/c1cc(Br)c(OC(C)c2cccc(CCc3ccccc3)c2)nc1C (stereo not shown) [Q.329]
≥ 50%: all assays above

CCCN(C)/C=N/c1cc(Br)c(OC(C)c2cc(F)cc(F)c2)nc1C (stereo not shown) [Q.191]
≥ 50%: all assays above

CCN(C)/C=N/c1cc(Br)c(OC2CCC(c3ccccc3)CC2)nc1C (stereo not shown) [Q.082]
≥ 50%: all assays above

CCN(C)/C=N/c1cc(Br)c(OC2CCCC(Oc3ccccn3)C2)nc1C (stereo not shown) [Q.240]
≥ 50%: all assays above

CCN(C)/C=N/c1cc(I)c(O[C@H]2CC[C@@H](C(C)C)CC2)nc1C [Q.180]
≥ 50%: all assays above

CCC(C)Oc1nc(C)c(/N=C/N(C)CC)cc1Br (stereo not shown) [Q.389]
≥ 50%: all assays above

CCN(C)/C=N/c1cc(Br)c(OCCCC(O)CCl)nc1C (stereo not shown) [Q.059]
≥ 50%: all assays above

CCN(C)/C=N/c1cc(Br)c(OCCc2ccc(Br)cc2)nc1C [Q.012]
≥ 50%: all assays above

CCN(C)/C=N/c1cc(Br)c(OCc2cccc(C)c2C)nc1C [Q.175]
≥ 50%: all assays above

CCN(C)/C=N/c1cc(Br)c(OC2Cc3cc(OC)c(OC)cc3C2)nc1C [Q.066]
≥ 50%: all assays above

CCCc1cccc(C(C)Oc2nc(C)c(/N=C/N(C)CC)cc2Br)c1 (stereo not shown) [Q.344]
≥ 50%: all assays above

CCCC(C)Oc1nc(C)c(/N=C/N(C)CC)cc1Br (stereo not shown) [Q.146]
≥ 50%: all assays above

CCN(C)/C=N/c1cc(Br)c(OC(C)Cc2cc(F)cc(F)c2)nc1C (stereo not shown) [Q.217]
≥ 50%: all assays above

CCN(C)/C=N/c1cc(C2CC2)c(OC(C)c2cc(F)cc(F)c2)nc1C (stereo not shown) [Q.216]
≥ 50%: all assays above

CCN(C)/C=N/c1cc(Br)c(OCc2ccns2)nc1C [Q.143]
≥ 50%: all assays above

CCN(C)/C=N/c1cc(Br)c(OC(C)c2ccns2)nc1C (stereo not shown) [Q.246]
≥ 50%: all assays above

CCc1ccccc1COc1nc(C)c(/N=C/N(C)CC)cc1Br [Q.285]
≥ 50%: all assays above

C=CCOc1nc(C)c(/N=C/N(C)CC)cc1Br [Q.393]
≥ 50%: all assays above

CCN(C)/C=N/c1cc(Br)c(OCc2cccc(I)c2)nc1C [Q.174]
≥ 50%: all assays above

CCN(C)/C=N/c1cc(Br)c(OCc2ccc(Cl)cc2)nc1C [Q.097]
≥ 50%: all assays above

CCN(C)/C=N/c1cc(Br)c(OC(C)c2cc(C)cc(C)c2)nc1C (stereo not shown) [Q.203]
≥ 50%: all assays above

CCN(C)/C=N/c1cc(Br)c(OC2Cc3cc(Cl)c(OC)cc3C2)nc1C (stereo not shown) [Q.378]
≥ 50%: all assays above

CCN(/C=N/c1cc(Br)c(OCCCC(C)C)nc1C)CC [Q.001]
≥ 50%: all assays above

CCN(C)/C=N/c1cc(Br)c(OC2CCc3c(cccc3OC)C2)nc1C (stereo not shown) [Q.019]
≥ 50%: all assays above

CCN(C)/C=N/c1cc(Br)c(OCCCCc2ccc(F)cc2)nc1C [Q.026]
≥ 50%: all assays above

CCN(C)/C=N/c1cc(Br)c(OC2CCc3ccc(/C(C)=N/OC)cc3C2)nc1C (stereo not shown) [Q.039]
≥ 50%: all assays above

CCN(C)/C=N/c1cc(Br)c(OCC2CCCc3ccccc32)nc1C (stereo not shown) [Q.226]
≥ 50%: all assays above

C/C=C(\C)CCCOc1nc(C)c(/N=C/N(C)CC)cc1Br [Q.133]
≥ 50%: all assays above

C=CCOC1CCC(Oc2nc(C)c(/N=C/N(C)CC)cc2Br)CC1 (stereo not shown) [Q.212]
≥ 50%: all assays above

CCc1cccc(C(C)Oc2nc(C)c(/N=C/N(C)CC)cc2Br)c1 (stereo not shown) [Q.284]
≥ 50%: all assays above
